Measured values: patent publication US12491188B2, “Small molecule PARG inhibitors and methods of use thereof” (Board of Regents, The University of Texas System, priority 2019, dated 2025)
pIC50: −log10 of the molar value.

Key:
human PARG = human PARG (Homo sapiens (Human), UniProt Q86W56); test: Gel-based PARG activity assay; format: biochemical
Description: FIGS. 9a & 9b show structure-activity relationships (SAR) of compounds from five main chemotypes. (FIG. 9a) A total of 34 representative HTS hits and commercially available analogues from each chemotype (FIG. 7 and FIG. 29) were analyzed using the gel-based PARG activity assay. This gel-based assay directly monitors the change of PARylation status of PARP1 as a substrate of PARG. […] The reaction was quenched after a 30 min incubation at room temperature by adding SDS-PAGE sample buffer. PARylated PARP1C runs as a smear on SDS-PAGE that is reduced to a single band by PARG treatment. […] (FIG. 9b) Quantification of the dose-response PARG inhibition by JA2-3 using the gel-based PARG activity assay. hPARG (1 nM) was preincubated with increasing concentrations (0.032-1 μM) of JA2-3 for 1 hr at room temperature before PARylated PARP1C (500 nM) was added. The reaction was quenched after a 30 min incubation at room temperature. PARylated PARP1C migrates slower than unmodified PARP1C and was quantified using ImageJ. To determine the IC50 value, the dose-response data were plotted as a function of JA2-3 concentration and fitted to the four-parameter logistic equation using SigmaPlot. The rate of the PARG-dependent signal loss in the TR-FRET PAR turnover assay is not equivalent to the steady-state rate of PAR turnover, because the TR-FRET assay can't detect signal loss until the length of PAR chains become shorter than 7 ADP-ribose units. Therefore, the gel-based PARG activity assay to accurately determine the IC50 values throughout the present disclosure.
Gel-based PARG activity assay. PARP1C (2 μM) is enzymatically auto-modified in a reaction containing the PARP1 DBD (2 μM), a 24 mer nicked DNA oligo (2 μM), and NAD+(300 μM) for 1 hr at 37° C., as described previously (Kim et al., 2012). Human PARG^389-976 (1 nM) was pre-incubated with compounds for 1 hr at room temperature. The reaction was initiated by addition of PARylated PARP1 (final concentration of 500 nM) and quenched after 30 min incubation at room temperature by adding SDS-PAGE sample buffer. The gel was visualized by sypro-ruby staining (Kim et al., 2012) and the retained PARylated PARP1C species were quantified using ImageJ (Schneider et al., 2012).
PARylated PARP1C that migrates slower than unmodified PARP1C was quantified. […] The IC50 values were determined by fitting the dose-response data for each compound to a four-parameter logistic equation using SigmaPlot (Systat Software Inc.).
To test specificity of JA2131, human PARG^389-976 (1 nM) was pre-incubated with JA2131 (5, 10, and 20 μM) in the presence and absence of 0.1% Triton-X 100 or 0.1 mg/ml BSA for 1 hr at room temperature. The reaction was initiated, quenched, visualized, and quantified as described above.

HeLa cells = test: DNA fiber assay, replication fork progression; format: cell-based; settings: 10 μM, 2 hrs pretreatment
Description: DNA fiber assay. DNA fiber assay was conducted as described previously (Castillo et al. 2014). Briefly, cells pretreated with JA2131 (10 μM) or DMSO for 2 hrs were labeled with 100 μM CldU for 30 min and exposed to 250 μM IdU (with or without 0.4 mM hydroxyurea treatment) for another 30 min or 3 hrs. After labeling and treatment, cells were lysed and DNA fibers stretched onto glass slides. Immunofluorescence was carried out using α-IdU/α-BrdU (BD Biosciences) and α-CldU/α-BrdU (Abcam) and secondary antibodies, including Alexa Fluor 488 (green) and Alexa Fluor 555 (Invitrogen). Images were taken using a Nikon 80 microscope and analyzed using ImageJ software. Statistics were calculated using Prism software. 5-Chloro-2′-deoxyuridine (CIdU) and 5-Iodo-2′-deoxyuridine (IdU) were from Sigma.

[1] = tested on: PC3, MDA-MB-231 and MCF-7 cell lines; test: Clonogenic cell-survival assay; format: cell-based, human; settings: 10 μM, 2 hours, 3 Gy IR, 2-3 weeks
Description: FIGS. 14a-c show selective inhibition of PARG by xanthine derivative JA2131. (FIG. 14a) PARG knockdown MDA-MB-231 cells were treated with 5 μM JA2131 or PDD for two hours, lysed and total lysates were immunoblotted for anti-PAR (upper panel) followed by anti-PARG (upper middle), anti-PARP1 (lower middle) and anti-actin (bottom). (FIG. 14b) Clonogenic assay radiation dose determination for MDA-MB-231, MCF-7 and PC3 cells. 500 cells were exposed to indicated dose of radiation and colonies were allowed to form for each cell-lines. The surviving colonies from each group were counted and normalized against non-irradiated. The results of three independent experiments are shown here. Error bars=SEM. (FIG. 14c) Clonogenic survival assays of PC3, MDA MB231 and MCF-7 cells treated with PARGi. 500 cells were treated with either DMSO or 10 μM JA2131 for 2 hours, irradiated 3Gy ionizing radiation and grown for approximately 2-3 weeks, then colonies were fixed methanol and stained with crystal violet. Cells were analysed as above. The results of three independent experiments are shown here. Error bars=SEM.
Cell culture. […] Cells were fixed with methanol (100%), stained with crystal violet and analyzed using a GelCount instrument (Oxford Optronix Ltd). […]

human PARG, sequence (Q86W56 389-976): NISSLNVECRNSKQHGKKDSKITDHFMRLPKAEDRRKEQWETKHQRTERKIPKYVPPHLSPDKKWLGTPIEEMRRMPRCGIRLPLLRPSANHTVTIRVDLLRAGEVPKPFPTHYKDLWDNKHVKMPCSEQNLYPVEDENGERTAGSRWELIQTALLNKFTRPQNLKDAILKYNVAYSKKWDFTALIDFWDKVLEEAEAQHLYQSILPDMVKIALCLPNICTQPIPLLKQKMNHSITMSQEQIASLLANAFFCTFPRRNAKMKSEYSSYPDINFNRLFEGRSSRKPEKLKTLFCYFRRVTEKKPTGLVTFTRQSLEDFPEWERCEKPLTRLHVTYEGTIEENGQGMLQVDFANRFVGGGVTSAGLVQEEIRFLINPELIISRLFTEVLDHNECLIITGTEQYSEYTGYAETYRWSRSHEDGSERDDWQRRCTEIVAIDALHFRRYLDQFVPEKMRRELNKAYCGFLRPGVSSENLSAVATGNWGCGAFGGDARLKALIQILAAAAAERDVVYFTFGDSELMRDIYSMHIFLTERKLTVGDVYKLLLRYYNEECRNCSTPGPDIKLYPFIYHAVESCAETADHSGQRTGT

Structure (SMILES): O=C1C(Cl)=C(Cl)C(Cl)(Cl)C(Cl)=C1Cl [JA2131]
- effect of detergent or non-specific protein on PARG inhibitory potency (human PARG; 0.1% Triton-X 100 or 0.1 mg/ml BSA, JA2131 5, 10, 20 μM): Neither the addition of Triton-X 100 nor BSA significantly altered the inhibitory potency
- IC50 of PARG inhibition (human PARG; hPARG 1 nM, PARylated PARP1C 500 nM): sub-micromolar
- pIC50 (human PARG; hPARG 1 nM, PARylated PARP1C 500 nM, read-out: IC50 of PARG inhibition): 6.40
- increase in potency of JA2131 (6′-thiocarbonyl) in comparison to JA2120 (6′-carbonyl) (human PARG; ratio of IC50 values): more than 50 fold
- average IdU tract (HeLa cells; absence of genotoxic stress): 6.0 μm
- average IdU tract length (HeLa cells; low dose of hydroxyurea): 5.0 μm
- colony formation [1]: inhibits colony formation in all three cell lines
